Test system: female Sprague-Dawley mature and young adult rats
Experiment: Ex vivo peripheral quantitative computed tomography (pQCT) of right femur (metaphysis, diaphysis, length)
Type: in vivo, rat
Conditions: Mature Adults; for pQCT femur (diaphysis) CSMI / pQCT femur (diaphysis) Cortical Area / pQCT femur (diaphysis) Cortical BMC / pQCT femur (diaphysis) Cortical BMD / pQCT femur (diaphysis) Cortical Thickness / pQCT femur (diaphysis) Endosteal Circumference / pQCT femur (diaphysis) Periosteal Circumference / pQCT femur (diaphysis) Total Area / pQCT femur (diaphysis) Total BMC / pQCT femur (diaphysis) Total BMD / pQCT femur Length / pQCT femur metaphysis C/SC (Cortical/Subcortical) BMC / pQCT femur metaphysis C/SC (Cortical/Subcortical) BMD / pQCT femur metaphysis Total Area / pQCT femur metaphysis Total BMC / pQCT femur metaphysis Total BMD / pQCT femur metaphysis Trabecular BMC / pQCT femur metaphysis Trabecular BMD: mean
Description: The following were evaluated: clinical signs (at least weekly), body weight (weekly), food consumption (weekly), hormones (Days 13 and 27), serum and urinary biochemical markers of bone turnover (Days 13 and 27), serum chemistry (at necropsy), bone densitometry by dual energy X-ray absorptiometry (DXA) and peripheral quantitative computed tomography (pQCT) (Week 2 and 4, as well as ex vivo), macroscopic observations at necropsy, organ weights, histopathology, biomechanical strength testing and femoral length measurements.
3.2 Ex Vivo Peripheral Quantitative Computed Tomography (pQCT)
Peripheral QCT scans were performed ex vivo using an XCT Research SA or SA+ bone scanner with software version 5.50D. Scans were obtained for the right femur, L3 and L4 lumbar vertebra for all animals euthanized at the end of the treatment period as well as two found dead animals. These two animals were scanned twice due to technical oversight, however only the first scans obtained were reported and the second scans were kept with the study file, this had no impact on the study as both scans were considered equivalent.
For the femurs, the scanned site was at the expected 3-point bending fracture site (diaphysis). This site was analyzed using Cortmode 2 for cortical bone measurements only (Table 5). An additional slice was obtained in the metaphysis. The metaphysis scan was not performed for the femur of three animals due to condyles detachment from the femur during trimming.
The femoral length was measured as part of the ex vivo pQCT scanning procedures and was reported for the right femur of all animals with the exception of 3 animas due to damaged femoral condyles.
All analyses were performed using the LOOP option of the analysis software. All other data generated as a result of the LOOP option were retained with the raw data but not reported. The most appropriate analysis mode for the femur and the lumbar vertebrae was used and documented in the raw data and the analysis details are presented in Table 6. All scan analysis data was retained and re-analyses documented.

COc1ccc(Cc2c(OC3OC(CO)C(F)C(O)C3O)n[nH]c2C(F)(F)F)cc1 (stereo not drawn) [Example 5 of formula II]
pQCT femur (diaphysis) CSMI, percent difference from Vehicle Control (10 mg/kg/day): 5.7%
pQCT femur (diaphysis) Cortical Area, percent difference from Vehicle Control (10 mg/kg/day): 2.3%
pQCT femur (diaphysis) Cortical BMC, percent difference from Vehicle Control (10 mg/kg/day): 2.7%
pQCT femur (diaphysis) Cortical BMD, percent difference from Vehicle Control (10 mg/kg/day): 0.5%
pQCT femur (diaphysis) Cortical Thickness, percent difference from Vehicle Control (10 mg/kg/day): 0.6%
pQCT femur (diaphysis) Endosteal Circumference, percent difference from Vehicle Control (10 mg/kg/day): 2.3%
pQCT femur (diaphysis) Periosteal Circumference, percent difference from Vehicle Control (10 mg/kg/day): 1.0%
pQCT femur (diaphysis) Total Area, percent difference from Vehicle Control (10 mg/kg/day): 3.1%
pQCT femur (diaphysis) Total BMC, percent difference from Vehicle Control (10 mg/kg/day): 3.0%
pQCT femur (diaphysis) Total BMD, percent difference from Vehicle Control (10 mg/kg/day): 0.1%
pQCT femur Length, percent difference from Vehicle Control (10 mg/kg/day): −0.4%
pQCT femur metaphysis C/SC BMC, percent difference from Vehicle Control (10 mg/kg/day): 6.2%
pQCT femur metaphysis C/SC BMD, percent difference from Vehicle Control (10 mg/kg/day): 2.0%
pQCT femur metaphysis Total Area, percent difference from Vehicle Control (10 mg/kg/day): 4.4%
pQCT femur metaphysis Total BMC, percent difference from Vehicle Control (10 mg/kg/day): 7.8%
pQCT femur metaphysis Total BMD, percent difference from Vehicle Control (10 mg/kg/day): 3.5%
pQCT femur metaphysis Trabecular BMC, percent difference from Vehicle Control (10 mg/kg/day): 14.7%
pQCT femur metaphysis Trabecular BMD, percent difference from Vehicle Control (10 mg/kg/day): 9.9%
pQCT femur (diaphysis) CSMI (10 mg/kg/day): 5.0 mm^4
pQCT femur (diaphysis) Cortical Area (10 mg/kg/day): 6.5 mm^2
pQCT femur (diaphysis) Cortical BMC (10 mg/kg/day): 8.5 mg/mm
pQCT femur (diaphysis) Cortical BMD (10 mg/kg/day): 1312.6 mg/cm^3
pQCT femur (diaphysis) Cortical Thickness (10 mg/kg/day): 0.76 mm
pQCT femur (diaphysis) Endosteal Circumference (10 mg/kg/day): 6.2 mm
pQCT femur (diaphysis) Periosteal Circumference (10 mg/kg/day): 10.8 mm
pQCT femur (diaphysis) Total Area (10 mg/kg/day): 9.6 mm^2
pQCT femur (diaphysis) Total BMC (10 mg/kg/day): 9.1 mg/mm
pQCT femur (diaphysis) Total BMD (10 mg/kg/day): 955.6 mg/cm^3
pQCT femur Length (10 mg/kg/day): 37.0 mm
pQCT femur metaphysis C/SC (Cortical/Subcortical) BMC (10 mg/kg/day): 10.1 mg/mm
pQCT femur metaphysis C/SC (Cortical/Subcortical) BMD (10 mg/kg/day): 1054.0 mg/cm^3
pQCT femur metaphysis Total Area (10 mg/kg/day): 16.0 mm^2
pQCT femur metaphysis Total BMC (10 mg/kg/day): 12.6 mg/mm
pQCT femur metaphysis Total BMD (10 mg/kg/day): 791.1 mg/cm^3
pQCT femur metaphysis Trabecular BMC (10 mg/kg/day): 2.5 mg/mm
pQCT femur metaphysis Trabecular BMD (10 mg/kg/day): 396.9 mg/cm^3
pQCT femur (diaphysis) CSMI, percent difference from Vehicle Control (50 mg/kg/day): −3.0%
pQCT femur (diaphysis) Cortical Area, percent difference from Vehicle Control (50 mg/kg/day): 0.2%
pQCT femur (diaphysis) Cortical BMC, percent difference from Vehicle Control (50 mg/kg/day): 1.2%
pQCT femur (diaphysis) Cortical BMD, percent difference from Vehicle Control (50 mg/kg/day): 1.0%
pQCT femur (diaphysis) Cortical Thickness, percent difference from Vehicle Control (50 mg/kg/day): 3.5%
pQCT femur (diaphysis) Endosteal Circumference, percent difference from Vehicle Control (50 mg/kg/day): −5.6%
pQCT femur (diaphysis) Periosteal Circumference, percent difference from Vehicle Control (50 mg/kg/day): −2.1%
pQCT femur (diaphysis) Total Area, percent difference from Vehicle Control (50 mg/kg/day): −3.4%
pQCT femur (diaphysis) Total BMC, percent difference from Vehicle Control (50 mg/kg/day): 0.0%
pQCT femur (diaphysis) Total BMD, percent difference from Vehicle Control (50 mg/kg/day): 3.5%
pQCT femur Length, percent difference from Vehicle Control (50 mg/kg/day): −0.4%
pQCT femur metaphysis C/SC BMC, percent difference from Vehicle Control (50 mg/kg/day): 4.0%
pQCT femur metaphysis C/SC BMD, percent difference from Vehicle Control (50 mg/kg/day): 7.0%
pQCT femur metaphysis Total Area, percent difference from Vehicle Control (50 mg/kg/day): −2.7%
pQCT femur metaphysis Total BMC, percent difference from Vehicle Control (50 mg/kg/day): 5.1%
pQCT femur metaphysis Total BMD, percent difference from Vehicle Control (50 mg/kg/day): 8.0%
pQCT femur metaphysis Trabecular BMC, percent difference from Vehicle Control (50 mg/kg/day): 9.7%
pQCT femur metaphysis Trabecular BMD, percent difference from Vehicle Control (50 mg/kg/day): 12.3%
pQCT femur (diaphysis) CSMI (50 mg/kg/day): 4.6 mm^4
pQCT femur (diaphysis) Cortical Area (50 mg/kg/day): 6.4 mm^2
pQCT femur (diaphysis) Cortical BMC (50 mg/kg/day): 8.4 mg/mm
pQCT femur (diaphysis) Cortical BMD (50 mg/kg/day): 1319.4 mg/cm^3
pQCT femur (diaphysis) Cortical Thickness (50 mg/kg/day): 0.78 mm
pQCT femur (diaphysis) Endosteal Circumference (50 mg/kg/day): 5.7 mm
pQCT femur (diaphysis) Periosteal Circumference (50 mg/kg/day): 10.4 mm
pQCT femur (diaphysis) Total Area (50 mg/kg/day): 9.0 mm^2
pQCT femur (diaphysis) Total BMC (50 mg/kg/day): 8.8 mg/mm
pQCT femur (diaphysis) Total BMD (50 mg/kg/day): 988.0 mg/cm^3
pQCT femur Length (50 mg/kg/day): 37.0 mm
pQCT femur metaphysis C/SC (Cortical/Subcortical) BMC (50 mg/kg/day): 9.9 mg/mm
pQCT femur metaphysis C/SC (Cortical/Subcortical) BMD (50 mg/kg/day): 1105.5 mg/cm^3
pQCT femur metaphysis Total Area (50 mg/kg/day): 14.9 mm^2
pQCT femur metaphysis Total BMC (50 mg/kg/day): 12.3 mg/mm
pQCT femur metaphysis Total BMD (50 mg/kg/day): 825.3 mg/cm^3
pQCT femur metaphysis Trabecular BMC (50 mg/kg/day): 2.4 mg/mm
pQCT femur metaphysis Trabecular BMD (50 mg/kg/day): 405.3 mg/cm^3

Source: patent publication US20120270819A1, “USE OF COMPOUNDS WITH SGLT-1/SGLT-2 INHIBITOR ACTIVITY FOR PRODUCING MEDICAMENTS FOR TREATMENT OF BONE DISEASE” (SANOFI, priority 2009, published 2012)
